# Data reported in paper PMC10208570, “Peptidomimetic antibiotics disrupt the lipopolysaccharide transport bridge of drug-resistant Enterobacteriaceae” (Science Advances, 2023).
# Like-named read-outs stand apart in the source and are kept apart here. Where a SMILES comes first, the peptide text is derived from it. Bridges are numbered along the chain shown (N, C = ends). [ ]: non-standard residue; d: D form. dHyp = O=C(O)[C@H]1C[C@H](O)CN1; dPen = CC(C)(S)[C@@H](N)C(=O)O; Pen = CC(C)(S)[C@H](N)C(=O)O; dDab = NCC[C@@H](N)C(=O)O; Dab = NCC[C@H](N)C(=O)O
# How the values were obtained:
# [1] = tested on: K. pneumoniae ATCC 43816 (parent / WT); test: microbe, parasite or virus in culture; conditions: for MIC K. pneumoniae ATCC 43816 Parent: CLSI method, parent strain; for MIC: Klebsiella pneumoniae
# Protocol: (§1) MIC assays [Clinical and Laboratory Standards Institute (CLSI) methodology] and serial passage studies were performed as described by Luther et al. ([6]). […] Resistant mutants were isolated, and their MIC values were determined and sent to Microbes NG (Birmingham, United Kingdom) for whole-genome sequencing and bioinformatic analysis.
# [2] = tested on: E. coli ATCC 25922 LptA Q62L mutant; test: microbe, parasite or virus in culture; conditions: for MIC E. coli ATCC 25922 Q62L mutant: CLSI method, clone harboring LptA Q62L; for MIC: Escherichia coli
# Protocol: as §1
# [3] = tested on: K. pneumoniae ATCC 43816 LptA Q62L mutant; test: microbe, parasite or virus in culture; conditions: for MIC: Klebsiella pneumoniae
# Protocol: as §1
# [4] = tested on: E. coli ATCC 25922 (parent / WT); test: microbe, parasite or virus in culture; conditions: for MIC E. coli ATCC 25922 Parent: CLSI method, parent strain; for MIC: Escherichia coli
# Protocol: as §1
# [5] = tested on: K. pneumoniae 968733 (CST-R); test: MIC assay (CLSI); assay type: cell-based, Klebsiella pneumoniae; conditions: for MIC: Klebsiella pneumoniae, read-out: MIC K. pneumoniae 968733 (CST-R) Parent
# Protocol: as §1
# LptAmQ62L = target: T1, LptAmQ62L (Escherichia coli, UniProt P0ADV1, Q62L); test: biochemical; assay type: binding, E. coli
# T1 construct: His6-GB1 (N, cleaved yes); made in house; host or cells: E. coli BL21 (DE3)
# T1 sequence (P0ADV1 28-159 Q62L): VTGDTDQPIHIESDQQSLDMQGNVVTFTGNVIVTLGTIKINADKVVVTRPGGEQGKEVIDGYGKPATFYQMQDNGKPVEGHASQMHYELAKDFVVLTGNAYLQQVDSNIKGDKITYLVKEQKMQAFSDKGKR
# Protocol: (§2) Protein stocks were purified and concentrated in buffer 1 [50 mM Na-Pi (pH 7) and 150 mM NaCl] and, if necessary, diluted to desired concentrations using buffer 2 [50 mM Na-Pi (pH 7), 150 mM NaCl, and 0.05% Tween 20]. Peptide stocks and fluorescently labeled peptide stocks were made in buffer 2. Every serial dilution consisted of 24 wells, the first well with the highest concentrate and the last well (well 24) with the lowest. First, 50 μl of buffer 2 was added to the wells 2 to 24 of each serial dilution. Then, 100 μl of concentrated unlabeled peptide/protein in their respective buffers was added to the first well. Fifty microliters were taken from the first well and added to the second well for a 1:1 serial dilution and continued for the 24 wells. […] Plates were covered with adhesive seals and left to incubate overnight at 4°C before FP measurements the next day. Anisotropy was measured using the Tecan Safire2 plate reader using a 10-nm bandwidth and setting the excitation and emission wavelengths to 635 and 670 nm, respectively. The G-factor (G) was also determined empirically as 1.094 for the instrument and included in all the anisotropy calculations.
# (§3) For the indirect binding assays, r was calculated in the same manner as the direct binding assays. […] The control was subtracted from r to yield r′. Data were fit to a sigmoidal interpolation model on GraphPad Prism 9, and an IC50 was generated for each unlabeled peptide or protein measured.
# LptAm = target: T2, LptAm (Escherichia coli, UniProt P0ADV1); test: biochemical; assay type: binding, E. coli
# T2 construct: His6-GB1 (N, cleaved yes); made in house; host or cells: E. coli BL21 (DE3)
# T2 sequence (P0ADV1 28-159): as the sequence (P0ADV1 28-159 Q62L) above, with L35Q counted along it
# Protocol: as §2, §3
# [6] = tested on: K. pneumoniae NCTC 13443 (NDM-1) LptA Q62L mutant; test: microbe, parasite or virus in culture; conditions: for MIC: Klebsiella pneumoniae
# Protocol: as §1
# [7] = tested on: K. pneumoniae NCTC 13443 (NDM-1) (parent / WT); test: microbe, parasite or virus in culture; conditions: for MIC: Klebsiella pneumoniae
# Protocol: as §1
# in vitro = assay type: cell-based; conditions: human
# Protocol: The cytotoxicity of compounds was determined by determining the number of viable cells using the Sigma Cell Counting Kit-8 (WST-8). HeLa cells were incubated at 37°C and 5% CO2 for 24 hours, after which the medium was replaced with fresh medium containing dilutions of compounds. […]
# human red blood cells = test: Haemolysis; assay type: cell-based; conditions: PBS-washed human red blood cells; 1 h at 200 mg/liter, 37°C; OD 540 nm; versus 100% lysis control 2.5% Triton X-100; biological replicates
# Protocol: To test their hemolytic potential, compounds were incubated in the presence of phosphate-buffered saline (PBS)–washed human red blood cells. After 1-hour incubation at 200 mg/liter and 37°C, the samples were centrifuged (3220g), the supernatants were diluted in Dulbecco’s PBS, and optical density at 540 nm was determined. The hemolysis induced by the compound was calculated versus a 100% lysis control prepared with 2.5% Triton X-100 (table S4A).
# [8] = tested on: Escherichia coli ATCC 25922 LptA E84D mutant; test: microbe, parasite or virus in culture; conditions: Escherichia coli, ATCC25922, read-out: MIC Escherichia coli ATCC 25922 LptA E84D (1x)
# Protocol: as §1
# [9] = tested on: Klebsiella pneumoniae ATCC 43816 LapB mutant; test: microbe, parasite or virus in culture; conditions: Klebsiella pneumoniae, ATCC43816, read-out: MIC Klebsiella pneumoniae ATCC 43816 LapB (1x)
# Protocol: as §1
# [10] = tested on: Klebsiella pneumoniae NCTC 13443 LptA I36S mutant; test: microbe, parasite or virus in culture; conditions: Klebsiella pneumoniae, NCTC13443, read-out: MIC Klebsiella pneumoniae NCTC 13443 LptA I36S (2x)
# Protocol: as §1
# [11] = tested on: Klebsiella pneumoniae ATCC 43816 PglJ, PhnJ, ThiH mutant; test: microbe, parasite or virus in culture; conditions: Klebsiella pneumoniae, ATCC43816, read-out: MIC Klebsiella pneumoniae ATCC 43816 PglJ, PhnJ, ThiH (1x)
# Protocol: as §1
# [12] = tested on: Klebsiella pneumoniae ATCC 43816 LptA I36S mutant; test: microbe, parasite or virus in culture; conditions: Klebsiella pneumoniae, ATCC43816, read-out: MIC Klebsiella pneumoniae ATCC 43816 LptA I36S (1x)
# Protocol: as §1
# [13] = tested on: Klebsiella pneumoniae NCTC 13443 LpxC, LpxD mutant; test: microbe, parasite or virus in culture; conditions: Klebsiella pneumoniae, NCTC13443, read-out: MIC Klebsiella pneumoniae NCTC 13443 LpxC, LpxD (1x)
# Protocol: as §1
# [14] = tested on: Klebsiella pneumoniae NCTC 13443 YejM mutant; test: microbe, parasite or virus in culture; conditions: Klebsiella pneumoniae, NCTC13443, read-out: MIC Klebsiella pneumoniae NCTC 13443 YejM (1x)
# Protocol: as §1
# [15] = tested on: Escherichia coli ATCC 25922 KdsD mutant; test: microbe, parasite or virus in culture; conditions: Escherichia coli, ATCC25922, read-out: MIC Escherichia coli ATCC 25922 KdsD (2x)
# Protocol: as §1
# [16] = tested on: Klebsiella pneumoniae ATCC 43816 LptA I36N mutant; test: microbe, parasite or virus in culture; conditions: Klebsiella pneumoniae, ATCC43816, read-out: MIC Klebsiella pneumoniae ATCC 43816 LptA I36N (1x)
# Protocol: as §1
# [17] = tested on: Klebsiella pneumoniae ATCC 43816 LptA L116Q mutant; test: microbe, parasite or virus in culture; conditions: Klebsiella pneumoniae, ATCC43816, read-out: MIC Klebsiella pneumoniae ATCC 43816 LptA L116Q (1x)
# Protocol: as §1
# [18] = CLSI method, clone harboring LptA Q62L
# [19] = ATCC43816, read-out: MIC K. pneumoniae ATCC 43816 Parent
# [20] = ATCC25922, read-out: MIC E. coli ATCC 25922 Q62L mutant
# [21] = NCTC13443, read-out: MIC K. pneumoniae NCTC 13443 (NDM-1) Parent
# [22] = ATCC25922, read-out: MIC E. coli ATCC 25922 Parent
# [23] = ATCC43816, read-out: MIC Klebsiella pneumoniae ATCC 43816 WT
# [24] = ATCC25922, read-out: MIC Escherichia coli ATCC 25922 LptA Q62L (7x)
# [25] = NCTC13443, read-out: MIC Klebsiella pneumoniae NCTC 13443 LptA Q62L (5x)
# [26] = NCTC13443, read-out: MIC Klebsiella pneumoniae NCTC 13443 WT
# [27] = ATCC43816, read-out: MIC Klebsiella pneumoniae ATCC 43816 LptA Q62L (4x)
# [28] = ATCC25922, read-out: MIC Escherichia coli ATCC 25922 WT
SMILES,MIC K. pneumoniae ATCC 43816 Parent [1] [micrograms per milliliter],MIC E. coli ATCC 25922 Q62L mutant [2] [micrograms per milliliter],MIC E. coli ATCC 25922 Parent [4] [micrograms per milliliter],"MIC [1, 19] [µg/mL]","MIC [2, 20] [µg/mL]","MIC [7, 21] [µg/mL]","MIC [4, 22] [µg/mL]",MIC [5] [µg/mL],"MIC [1, 23] [µg/mL]",MIC [8] [µg/mL],MIC [9] [µg/mL],MIC [10] [µg/mL],"MIC [2, 24] [µg/mL]","MIC [6, 25] [µg/mL]","MIC [7, 26] [µg/mL]",MIC [11] [µg/mL],MIC [12] [µg/mL],MIC [13] [µg/mL],MIC [14] [µg/mL],MIC [15] [µg/mL],further results
CC[C@@H](C)[C@@H](NC(=O)[C@H]1C[C@H](O)CN1C(=O)[C@H](N)C(C)C)C(=O)N[C@@H](C(=O)N[C@H](Cc1ccc(O)cc1)C(=O)N[C@H]1C(=O)N[C@H](CC(N)=O)C(=O)N[C@H](CCCNC(=N)N)C(=O)N[C@H](CCN)C(=O)N[C@H]([C@H](C)O)C(=O)N[C@@H](CCN)C(=O)N[C@H](CCCCN)C(=O)N[C@@H](C(=O)N[C@H](CCN)C(=O)N[C@H](CCCNC(=N)N)C(=O)N[C@H](Cc2ccc(O)cc2)C(=O)O)CSSC1(C)C)[C@H](C)O [6-enant.] (H-[dV][dHyp][dI][dT][dY][dPen][dN][dR][dDab][dT][Dab][dK][dC][dDab][dR][dY]-OH; disulfide 6-13),>8,>8,>8,–,–,–,–,–,–,–,–,–,–,–,–,–,–,–,–,–,"MIC K. pneumoniae ATCC 43816 Q62L mutant [3, 18]: >8 micrograms per milliliter; MIC K. pneumoniae 968733 (CST-R) Parent ([5]; CLSI method, colistin-resistant strain): >8 micrograms per milliliter"
CC[C@H](C)[C@H](NC(=O)[C@@H](NC(=O)[C@@H]1CCCN1C(=O)[C@@H](NC(=O)[C@@H]1CCCN1C(=O)[C@H](CCCCN)NC(=O)[C@@H](N)CCCCN)C(C)C)[C@@H](C)CC)C(=O)N[C@@H](Cc1ccc(O)cc1)C(=O)N[C@@H]1C(=O)N[C@@H](CC(N)=O)C(=O)N[C@@H](CCCNC(=N)N)C(=O)N[C@@H](CCN)C(=O)N[C@@H]([C@@H](C)O)C(=O)N[C@H](CCN)C(=O)N[C@@H](CCCCN)C(=O)N[C@H](C(=O)N[C@@H](CCN)C(=O)N[C@@H](CCCNC(=N)N)C(=O)N[C@@H](Cc2ccc(O)cc2)C(=O)O)CSSC1(C)C [Compound 2] (H-KKPVPIIY[Pen]NR[Dab]T[dDab]KC[Dab]RY-OH; disulfide 9-16),0.125,2,0.031,–,–,–,–,–,–,–,–,–,–,–,–,–,–,–,–,–,"IC50 (LptAmQ62L): 19.3 ± 6.3 nM; Ki (LptAmQ62L): 13.1 ± 4.2 nM; IC50 (LptAm): 12.6 ± 0.7 nM; Ki (LptAm): 2.1 ± 0.1 nM; MIC K. pneumoniae NCTC 13443 (NDM-1) Q62L mutant [6, 18]: >8 micrograms per milliliter; MIC K. pneumoniae NCTC 13443 (NDM-1) Parent ([7]; CLSI method, parent strain): 0.5 micrograms per milliliter; IC50 at 48 h (in vitro): 60 µM; Haemolysis % at 0.2 g/L (human red blood cells): 0%"
"CNC(C)C1CCC(N)C(OC2C(N)CC(N)C(OC3OCC(C)(O)C(NC)C3O)C2O)O1 (stereo not drawn) [Gentamicin, reference compound]",–,–,–,0.5,1,> 8,0.5,0.5,–,–,–,–,–,–,–,–,–,–,–,–,"MIC ([6]; NCTC13443, read-out: MIC K. pneumoniae NCTC 13443 (NDM-1) Q62L mutant): > 8 µg/mL; MIC ([3]; ATCC43816, read-out: MIC K. pneumoniae ATCC 43816 Q62L mutant): 0.5 µg/mL"
CO[C@@H]1[C@@H](OC(N)=O)[C@@H](O)[C@H](Oc2ccc3c(O)c(NC(=O)c4ccc(O)c(CC=C(C)C)c4)c(=O)oc3c2C)OC1(C)C [Novobiocin],–,–,–,–,–,–,–,–,> 64,> 64,32,> 64,64,> 64,> 64,32,> 64,> 64,> 64,64,"MIC [16]: > 64 µg/mL; MIC [3, 27]: > 64 µg/mL; MIC [4, 28]: > 64 µg/mL; MIC [17]: > 64 µg/mL"
"CN(C)c1cc(NC(=O)CNC(C)(C)C)c(O)c2c1C[C@H]1C[C@H]3[C@H](N(C)C)C(O)=C(C(N)=O)C(=O)[C@@]3(O)C(O)=C1C2=O [Tigecycline, reference compound]",–,–,–,0.5,0.25,2,0.25,0.5,–,–,–,–,–,–,–,–,–,–,–,–,–
CN[C@H](CC(C)C)C(=O)N[C@H]1C(=O)N[C@@H](CC(N)=O)C(=O)N[C@H]2C(=O)N[C@H]3C(=O)N[C@H](C(=O)N[C@H](C(=O)O)c4cc(O)cc(O)c4-c4cc3ccc4O)[C@H](O)c3ccc(c(Cl)c3)Oc3cc2cc(c3O[C@@H]2O[C@H](CO)[C@@H](O)[C@H](O)[C@H]2O[C@H]2C[C@](C)(N)[C@H](O)[C@H](C)O2)Oc2ccc(cc2Cl)[C@H]1O [Vancomycin],–,–,–,–,–,–,–,–,> 64,> 64,> 64,> 64,> 64,> 64,> 64,> 64,> 64,> 64,> 64,> 64,"MIC [16]: > 64 µg/mL; MIC [3, 27]: > 64 µg/mL; MIC [4, 28]: > 64 µg/mL; MIC [17]: > 64 µg/mL"
